From PMC3914206

Assays:
Type in all cases: binding
Parameters in all cases: KINOMEscan: ABL1(F317L)-phosphorylated / KINOMEscan: ABL1(H396P)-nonphosphorylated / KINOMEscan: ABL1(H396P)-phosphorylated / KINOMEscan: ABL1(M351T)-phosphorylated / KINOMEscan: ABL1(T315I)-phosphorylated / KINOMEscan: ABL1-nonphosphorylated / KINOMEscan: ABL1-phosphorylated / KINOMEscan: ACVR2A / KINOMEscan: ACVR2B / KINOMEscan: ADCK3 / KINOMEscan: ADCK4 / KINOMEscan: AKT1 / KINOMEscan: AKT3 / KINOMEscan: ALK / KINOMEscan: ARK5 / KINOMEscan: AURKA / KINOMEscan: AURKC / KINOMEscan: BIKE / KINOMEscan: BMPR1A / KINOMEscan: BMPR1B / KINOMEscan: BMX / KINOMEscan: BRK / KINOMEscan: BRSK1 / KINOMEscan: BRSK2 / KINOMEscan: CAMK1 / KINOMEscan: CAMK1D / KINOMEscan: CAMK1G / KINOMEscan: CAMK2A / KINOMEscan: CAMK2B / KINOMEscan: AAK1 / KINOMEscan: CAMK2D / KINOMEscan: CAMK2G / KINOMEscan: ABL1(F317I)-nonphosphorylated / KINOMEscan: ABL1(F317I)-phosphorylated / KINOMEscan: ABL1(F317L)-nonphosphorylated: unit: % Ctrl
Settings in all cases: Compound Concentration 10 µM
panel of 442 kinases [1] = molecular target: T1, panel of 442 kinases (Homo sapiens, UniProt P27037)
T1 construct: purchased KINOMEscan
From the text: (§1) We assessed the selectivity of members of this scaffold using the KINOMEscan methodology across a near comprehensive panel of 442 kinases [[18,27]].

panel of 442 kinases [2] = molecular target: T2, panel of 442 kinases (Homo sapiens, UniProt P50613)
T2 construct: purchased KINOMEscan
From the text: as §1

panel of 442 kinases [3] = molecular target: T3, panel of 442 kinases (Homo sapiens, UniProt P36894)
T3 construct: purchased KINOMEscan
From the text: as §1

T3 sequence (P36894 24-532): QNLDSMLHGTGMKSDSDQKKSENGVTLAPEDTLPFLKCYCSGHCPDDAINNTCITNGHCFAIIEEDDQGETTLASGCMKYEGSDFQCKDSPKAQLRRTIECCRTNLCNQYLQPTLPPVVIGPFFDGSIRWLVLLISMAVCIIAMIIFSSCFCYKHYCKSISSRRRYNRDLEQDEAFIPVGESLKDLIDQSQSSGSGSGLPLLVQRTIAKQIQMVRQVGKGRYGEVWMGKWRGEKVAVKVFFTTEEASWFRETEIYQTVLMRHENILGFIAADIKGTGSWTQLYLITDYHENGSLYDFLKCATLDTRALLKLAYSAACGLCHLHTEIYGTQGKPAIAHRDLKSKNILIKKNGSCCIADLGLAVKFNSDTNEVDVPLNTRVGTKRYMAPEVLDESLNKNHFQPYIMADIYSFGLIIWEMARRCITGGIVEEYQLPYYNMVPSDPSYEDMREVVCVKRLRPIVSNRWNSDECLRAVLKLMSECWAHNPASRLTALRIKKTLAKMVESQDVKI
T1 sequence (P27037 20-513): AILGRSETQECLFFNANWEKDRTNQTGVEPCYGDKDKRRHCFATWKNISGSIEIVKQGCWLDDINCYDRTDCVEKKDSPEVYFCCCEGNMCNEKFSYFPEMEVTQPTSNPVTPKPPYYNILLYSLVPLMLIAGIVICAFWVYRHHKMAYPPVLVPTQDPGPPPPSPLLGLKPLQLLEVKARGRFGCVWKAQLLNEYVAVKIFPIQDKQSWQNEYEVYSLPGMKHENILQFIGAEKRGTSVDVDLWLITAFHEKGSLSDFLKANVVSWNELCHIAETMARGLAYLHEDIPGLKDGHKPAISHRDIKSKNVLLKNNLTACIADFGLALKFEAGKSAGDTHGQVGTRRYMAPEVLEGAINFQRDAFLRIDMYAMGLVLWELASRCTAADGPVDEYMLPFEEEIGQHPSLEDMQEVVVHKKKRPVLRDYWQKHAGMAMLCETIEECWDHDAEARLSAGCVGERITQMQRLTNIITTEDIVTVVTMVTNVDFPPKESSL
T2 sequence (P50613 whole entry): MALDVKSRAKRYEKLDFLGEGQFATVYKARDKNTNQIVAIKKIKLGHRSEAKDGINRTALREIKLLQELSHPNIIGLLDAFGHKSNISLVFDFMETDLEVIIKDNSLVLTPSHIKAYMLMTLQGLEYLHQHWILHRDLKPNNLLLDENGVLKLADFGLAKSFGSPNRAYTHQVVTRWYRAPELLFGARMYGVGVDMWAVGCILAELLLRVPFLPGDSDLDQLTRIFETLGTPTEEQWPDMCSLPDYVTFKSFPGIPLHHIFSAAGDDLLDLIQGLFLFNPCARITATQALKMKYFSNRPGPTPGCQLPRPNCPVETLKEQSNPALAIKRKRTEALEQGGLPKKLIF

SMILES | KINOMEscan: ACVR2A (panel of 442 kinases [1]) | KINOMEscan: CDK7 (panel of 442 kinases [2]) | KINOMEscan: BMPR1A (panel of 442 kinases [3])
COc1cc(C(=O)N2CCC(N3CCN(C)CC3)CC2)ccc1Nc1ncc2c(n1)N(C)c1ccccc1C(=O)N2C [15 (LRRK2-IN-1)] | 100 | 86 | 100
CCOc1cc(C(=O)N2CCC(N3CCN(C)CC3)CC2)ccc1Nc1ncc2c(n1)N(C1CCCC1)c1ccccc1C(=O)N2C [Compound 26] | 95 | 57 | 100
COc1cc(C(=O)N2CCC(N3CCN(C)CC3)CC2)ccc1Nc1ncc2c(n1)N1CCc3cccc(c31)C(=O)N2C [Compound 24] | 71 | – | 67
COc1cc(C(=O)N2CCC(N3CCN(C)CC3)CC2)ccc1Nc1ncc2c(n1)N(C1CCCC1)c1ccccc1C(=O)N2C [Compound 25, 11-cyclopentyl-2-((2-methoxy-4-(4-(4-methylpiperazin-1-yl)piperidine-1-carbonyl)phenyl)amino)-5-methyl-5H-benzo[e]pyrimido[5,4-b][1,4]diazepin-6(11H)-one] | 93 | 18 | 96
